# Target: Wee-1 kinase (Homo sapiens (Human), UniProt P30291)
# Assay: Measurement of Wee-1 kinase activity (ADP-Glo luminescence)
# Format: biochemical
# Settings: read-out: Wee1 IC50
# Description: Method 1: Measurement of Wee-1 Kinase Activity
# In the measurement of Wee-1 activity, a commercial peptide Poly(Lys Tyr(4:1)) hydrobromide was purchased from Sigma Aldrich and used as the substrate. Activated Wee-1 kinase was purchased from Invitrogen (PV3817) and an ADP-Glo luminescent kit was purchased from Promega.
# All reactions took place in […] volumes in reaction buffer containing 40 mM Tris-HCl and 20 mM magnesium chloride, supplemented with 0.1 mg/mL bovine serum albumin and 2 mM DTT. Compounds were serially diluted in buffer and 5 μL of each concentration pipetted into a white 384 well plate (Sigma Aldrich M6186). A 5 μL aliquot of the Wee-1 enzyme was added to each well and the plate centrifuged for 1 min to ensure mixing of the enzyme and inhibitor.
# The plate was incubated at room temperature for 30 minutes before the addition of 2.0 μg/mL of substrate and 30 μM ATP in a 5 μL aliquot. The plate was centrifuged for one minute and incubated for 1 h at RT.
# 15 μL of ADP-Glo stop reagent was added to each well to quench the reaction and deplete unconverted ATP. The plate was incubated for a further 40 min in the dark at RT.
# 30 μL of ADP-Glo kinase detection reagent was added to each well, converting ADP to ATP, catalysing the generation of luciferin by luciferase. The plate was shaken for 1 min, and incubated in the dark for an additional hour.
# Luminescence from each well was detected using the Biotek Synergy4 HD plate reader and the percentage inhibition of kinase activity calculated for each inhibitor tested. Positive (kinase only) and negative (no kinase) controls were added to each plate to ensure specific interaction of kinase and inhibitor. The IC50 concentration for each inhibitor was calculated by plotting the percentage kinase inhibition against concentration of inhibitor and the curve generated by non-linear regression fitting.
# Chain of Wee-1 kinase (P30291 whole entry): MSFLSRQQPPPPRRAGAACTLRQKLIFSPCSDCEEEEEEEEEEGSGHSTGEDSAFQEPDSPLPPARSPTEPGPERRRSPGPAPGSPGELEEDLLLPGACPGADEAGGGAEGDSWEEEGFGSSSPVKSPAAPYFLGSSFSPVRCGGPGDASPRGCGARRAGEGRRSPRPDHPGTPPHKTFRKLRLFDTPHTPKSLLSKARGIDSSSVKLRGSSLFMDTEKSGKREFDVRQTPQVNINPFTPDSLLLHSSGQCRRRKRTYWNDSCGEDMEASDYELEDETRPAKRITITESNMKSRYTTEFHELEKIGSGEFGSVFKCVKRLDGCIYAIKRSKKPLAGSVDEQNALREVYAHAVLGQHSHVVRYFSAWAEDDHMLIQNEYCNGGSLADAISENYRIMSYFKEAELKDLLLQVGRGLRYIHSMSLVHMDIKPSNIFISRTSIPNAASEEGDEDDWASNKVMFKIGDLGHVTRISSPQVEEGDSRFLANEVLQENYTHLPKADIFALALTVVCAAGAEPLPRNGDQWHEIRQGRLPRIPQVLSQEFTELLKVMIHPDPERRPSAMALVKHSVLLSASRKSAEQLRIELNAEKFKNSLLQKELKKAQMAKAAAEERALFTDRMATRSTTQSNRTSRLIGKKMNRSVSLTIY
row,Compound,IC50 [nM]
1,"C=CCn1c(=O)c2cnc(Nc3ccc(F)nc3)nc2n1-c1cccc(N=S(C)(C)=O)n1 [Example 70, 1-(6-{[Dimethyl(oxo)-λ^6-sulfanylidene]amino}pyridin-2-yl)-6-[(6-fluoropyridin-3-yl)amino]-2-(prop-2-en-1-yl)-1H,2H,3H-pyrazolo[3,4-d]pyrimidin-3-one]",2.5
2,"CC(C)n1c(=O)c2cnc(Nc3ccc(N(C)C)cc3)nc2n1-c1cccc(N=S(C)(C)=O)n1 [Example 58, 1-(6-{[Dimethyl(oxo)-λ^6-sulfanylidene]amino}pyridin-2-yl)-6-{[4-(dimethylamino)phenyl]amino}-2-(propan-2-yl)-1H,2H, 3H-pyrazolo[3,4-d]pyrimidin-3-one]",0.4
3,"C=CCn1c(=O)c2cnc(Nc3ccc(N(C)C)c(C(O)C(F)(F)F)c3)nc2n1-c1cccc(N=S(C)(C)=O)n1 (racemic) [Example 83, rac-1-(6-{[Dimethyl(oxo)-λ^6-sulfanylidene]amino}pyridin-2-yl)-6-{[4-(dimethylamino)-3-(2,2,2-trifluoro-1-hydroxyethyl)phenyl]amino}-2-(prop-2-en-1-yl)-1H,2H,3H-pyrazolo[3,4-d]pyrimidin-3-one]",0.4
4,"CC(C)n1c(=O)c2cnc(N(c3ccc(C#N)cc3)c3ccc(C#N)cc3)nc2n1-c1cccc(N=S(C)(C)=O)n1 [Example 60, 4-[(4-Cyanophenyl)[1-(6-{[dimethyl(oxo)-λ^6-sulfanylidene]amino}pyridin-2-yl)-3-oxo-2-(propan-2-yl)-1H,2H,3H-pyrazolo[3,4-d]pyrimidin-6-yl]amino]benzonitrile]",760
5,"C=CCn1c(=O)c2cnc(Nc3ccc(C(C)(C)C)cc3)nc2n1-c1cccc(N=S(C)(C)=O)n1 [Example 64, 6-[(4-tert-Butylphenyl)amino]-1-(6-{[dimethyl(oxo)-λ^6-sulfanylidene]amino}pyridin-2-yl)-2-(prop-2-en-1-yl)-1H,2H,3H-pyrazolo[3,4-d]pyrimidin-3-one]",1.6
6,"C=CCn1c(=O)c2cnc(Nc3ccc(N4C[C@@H](C)N[C@@H](C)C4)cc3)nc2n1-c1cccc(N=S(C)(C)=O)n1 [Example 17, 1-(6-{[Dimethyl(oxo)-λ^6-sulfanylidene]amino}pyridin-2-yl)-6-({4-[(3R,5S)-3,5-dimethylpiperazin-1-yl]phenyl}amino)-2-(prop-2-en-1-yl)-1H,2H,3H-pyrazolo[3,4-d]pyrimidin-3-one]",1.1
7,"COC[C@@H]1CN(c2ccc(Nc3ncc4c(=O)n(C(C)C)n(-c5cccc(N=S(C)(C)=O)n5)c4n3)cc2)CCO1 [Example 53, 1-(6-{[Dimethyl(oxo)-λ^6-sulfanylidene]amino}pyridin-2-yl)-6-({4-[(2S)-2-(methoxymethyl)morpholin-4-yl]phenyl}amino)-2-(propan-2-yl)-1H,2H,3H-pyrazolo[3,4-d]pyrimidin-3-one]",0.5
8,"CC(C)n1c(=O)c2cnc(Nc3ccc(C(F)(F)F)cc3)nc2n1-c1cccc(N=S(C)(C)=O)n1 [Example 72, 1-(6-{[Dimethyl(oxo)-λ^6-sulfanylidene]amino}pyridin-2-yl)-2-(propan-2-yl)-6-{[4-(trifluoromethyl)phenyl]amino}-1H,2H,3H-pyrazolo[3,4-d]pyrimidin-3-one]",19
9,"C=CCn1c(=O)c2cnc(Nc3ccc(F)cc3)nc2n1-c1cncc(N=S(C)(C)=O)n1 [Example 75, 1-(6-{[Dimethyl(oxo)-λ^6-sulfanylidene]amino}pyrazin-2-yl)-6-[(4-fluorophenyl)amino]-2-(prop-2-en-1-yl)-1H,2H,3H-pyrazolo[3,4-d]pyrimidin-3-one]",1.4
10,"CC(C)n1c(=O)c2cnc(Nc3ccc(F)cc3)nc2n1-c1cccc(N=S2(=O)CCCC2)n1 [Example 55, 6-[(4-Fluorophenyl)amino]-1-{6-[(1-oxo-1λ^6-thiolan-1-ylidene)amino]pyridin-2-yl}-2-(propan-2-yl)-1H,2H,3H-pyrazolo[3,4-d]pyrimidin-3-one]",13.3
11,"C=CCn1c(=O)c2cnc(Nc3cnn(C)c3)nc2n1-c1cccc(N=[S@@](C)(=O)c2ccccc2)n1 [Example 79, 1-(6-{[(S)-Methyl(oxo)phenyl-λ^6-sulfanylidene]amino}pyridin-2-yl)-6-[(1-methyl-1H-pyrazol-4-yl)amino]-2-(prop-2-en-1-yl)-1H,2H,3H-pyrazolo[3,4-d]pyrimidin-3-one]",46

# Next, values leading:
row,IC50 [nM],Compound
1,0.6,"C=CCn1c(=O)c2cnc(Nc3cccc(N4CCOCC4)c3)nc2n1-c1cccc(N=S(C)(C)=O)n1 [Example 35, 1-(6-{[Dimethyl(oxo)-λ^6-sulfanylidene]amino}pyridin-2-yl)-6-{[3-(morpholin-4-yl)phenyl]amino}-2-(prop-2-en-1-yl)-1H,2H,3H-pyrazolo[3,4-d]pyrimidin-3-one]"
2,0.8,"CCCn1c(=O)c2cnc(Nc3ccc(N4CCOCC4)cc3)nc2n1-c1cccc(N=S(C)(C)=O)n1 [Example 38, 1-(6-{[Dimethyl(oxo)-λ^6-sulfanylidene]amino}pyridin-2-yl)-6-{[4-(morpholin-4-yl)phenyl]amino}-2-propyl-1H,2H,3H-pyrazolo[3,4-d]pyrimidin-3-one]"
3,0.3,"C=CCn1c(=O)c2cnc(Nc3ccc(N4CCN(C5CC5)CC4)cc3)nc2n1-c1cccc(N=S(C)(C)=O)n1 [Example 8, 6-{[4-(4-Cyclopropylpiperazin-1-yl)phenyl]amino}-1-(6-{[dimethyl(oxo)-λ^6-sulfanylidene]amino}pyridine-2-yl)-2-(prop-2-en-1-yl)-1H,2H,3H-pyrazolo[3,4-d]pyrimidin-3-one]"
4,1.8,"C=CCn1c(=O)c2cnc(Nc3ccc(N4CCNCC4)cc3)nc2n1-c1cccc(N=S(C)(C)=O)n1 [Example 6, 1-(6-{[Dimethyl(oxo)-λ^6-sulfanylidene]amino}pyridine-2-yl)-6-{[4-(piperazin-1-yl)phenyl]amino}-2-(prop-2-en-1-yl)-1H,2H,3H-pyrazolo[3,4-d]pyrimidin-3-one]"
5,2.6,"C=CCn1c(=O)c2cnc(Nc3ccc(N4CCOCC4)c(CNC)c3)nc2n1-c1cccc(N=S(C)(C)=O)c1 [Example 22, 1-(3-{[Dimethyl(oxo)-λ^6-sulfanylidene]amino}phenyl)-6-({3-[(methylamino)methyl]-4-(morpholin-4-yl)phenyl}amino)-2-(prop-2-en-1-yl)-1H,2H,3H-pyrazolo[3,4-d]pyrimidin-3-one]"
6,1,"C=CCn1c(=O)c2cnc(Nc3ccccc3)nc2n1-c1cccc(N=S(C)(C)=O)n1 [Example 19, 1-(6-{[Dimethyl(oxo)-λ^6-sulfanylidene]amino}pyridin-2-yl)-6-(phenylamino)-2-(prop-2-en-1-yl)-1H,2H,3H-pyrazolo[3,4-d]pyrimidin-3-one]"
7,20.3,"C=CCn1c(=O)c2cnc(Nc3ccc(N4CCOCC4)cc3)nc2n1-c1cncc(N=S(C)(C)=O)c1 [Example 44, 1-(5-{[Dimethyl(oxo)-λ^6-sulfanylidene]amino}pyridin-3-yl)-6-{[4-(morpholin-4-yl)phenyl]amino}-2-(prop-2-en-1-yl)-1H,2H,3H-pyrazolo[3,4-d]pyrimidin-3-one]"
8,0.7,"C=CCn1c(=O)c2cnc(Nc3ccc(N4CCOCC4)c(OC)c3)nc2n1-c1cccc(N=S(C)(C)=O)n1 [Example 25, 1-(6-{[Dimethyl(oxo)-λ^6-sulfanylidene]amino}pyridin-2-yl)-6-{[3-methoxy-4-(morpholin-4-yl)phenyl]amino}-2-(prop-2-en-1-yl)-1H,2H,3H-pyrazolo[3,4-d]pyrimidin-3-one]"
9,0.9,"C=CCn1c(=O)c2cnc(Nc3ccc4c(c3)CN(C)CC43CC3)nc2n1-c1cccc(N=S(C)(C)=O)n1 [Example 15, 1-(6-{[Dimethyl(oxo)-λ^6-sulfanylidene]amino}pyridine-2-yl)-6-({2′-methyl-2′,3′-dihydro-1′H-spiro[cyclopropane-1,4′-isoquinoline]-7′-yl}amino)-2-(prop-2-en-1-yl)-1H,2H,3H-pyrazolo[3,4-d]pyrimidin-3-one]"
10,0.2,"C=CCn1c(=O)c2cnc(Nc3ccc(N4CCC4)cc3)nc2n1-c1cccc(N=S(C)(C)=O)n1 [Example 90, 6-{[4-(Azetidin-1-yl)phenyl]amino}-1-(6-{[dimethyl(oxo)-λ^6-sulfanylidene]amino}pyridin-2-yl)-2-(prop-2-en-1-yl)-1H,2H,3H-pyrazolo[3,4-d]pyrimidin-3-one]"
11,0.4,"C=CCn1c(=O)c2cnc(Nc3ccc(F)c(OC)c3)nc2n1-c1cccc(N=S(C)(C)=O)n1 [Example 82, 1-(6-{[Dimethyl(oxo)-λ^6-sulfanylidene]amino}pyridin-2-yl)-6-[(4-fluoro-3-methoxyphenyl)amino]-2-(prop-2-en-1-yl)-1H,2H,3H-pyrazolo[3,4-d]pyrimidin-3-one]"
12,0.3,"C=CCn1c(=O)c2cnc(Nc3ccc(Cl)cc3)nc2n1-c1cccc(N=S(C)(C)=O)n1 [Example 62, 6-[(4-Chlorophenyl)amino]-1-(6-{[dimethyl(oxo)-λ^6-sulfanylidene]amino}pyridin-2-yl)-2-(prop-2-en-1-yl)-1H,2H,3H-pyrazolo[3,4-d]pyrimidin-3-one]"
